Experimental data taken from patent publication US20260225997A1, “IONIZABLE AMINE LIPIDS” (Intellia Therapeutics, Inc., priority 2018, published 2026).

Tests used:
[1] = system: B2M; assay: B2M editing in mouse liver by NGS after i.v. LNP delivery of Cas9 mRNA and sgRNA; type: in vivo; conditions: CD-1 female mice; for Editing (%) of B2M in mouse liver: Example 52: LNP single dose 0.1 mg/kg i.v., sgRNA G650:Cas9 mRNA 1:1, NGS; for % Editing B2M in mouse liver: 7 days post-dose, G650 1:1
Method: Preparations of various LNP compositions were prepared with amine lipids. In assays for percent liver editing in mice, Cas9 mRNA and chemically modified sgRNA were formulated in LNPs, at either a 1:1 w/w ratio or a 1:2 w/w ratio. LNPs are formulated with a composition of a given ionizable lipid (e.g. an amine lipid), DSPC, cholesterol, and PEG-2k-DMG, with a 6.0 N:P ratio.
LNPs were administered to mice by a single dose at 0.1 mg/kg, unless otherwise noted and genomic DNA was isolated for NGS analysis as described below.
CD-1 female mice, ranging from 6-10 weeks of age were used in each study. Animals were weighed and grouped according to body weight for preparing dosing solutions based on group average weight. LNPs were dosed via the lateral tail vein in a volume of 0.2 mL per animal (approximately 10 mL per kilogram body weight). The animals were periodically observed post dose for adverse effects for at least 24 hours post dose. Animals were euthanized at 6 or 7 days by exsanguination via cardiac puncture under isoflurane anesthesia. Blood was collected into serum separator tubes or into tubes containing buffered sodium citrate for plasma as described herein. For studies involving in vivo editing, liver tissue was collected from each animal for DNA extraction and analysis.
Cohorts of mice were measured for liver editing by Next-Generation Sequencing (NGS).
In brief, to quantitatively determine the efficiency of editing at the target location in the genome, genomic DNA was isolated and deep sequencing was utilized to identify the presence of insertions and deletions introduced by gene editing.
PCR primers were designed around the target site (e.g., B2M), and the genomic area of interest was amplified. Additional PCR was performed according to the manufacturer's protocols (Illumina) to add the necessary chemistry for sequencing. The amplicons were sequenced on an Illumina MiSeq instrument. The reads were aligned to the […] after eliminating those having low quality scores. The resulting files containing the reads were mapped to the reference genome (BAM files), where reads that overlapped the target region of interest were selected and the number of wild type reads versus the number of reads which contain an insertion, substitution, or deletion was calculated.
The editing percentage (e.g., the “editing efficiency” or “percent editing”) is defined as the total number of sequence reads with insertions or deletions over the total number of sequence reads, including wild type.
CD-1 female mice were dosed i.v. at 0.1 mpk or 0.3 mpk. […] For animals dosed with G282 targeting TTR, blood and the liver were collected and serum TTR and editing were measured. For animals dosed with G650 targeting B2M, liver was collected and editing was measured.

[2] = pKa measurement of unformulated amine lipid (fluorescence, method of Jayaraman et al.); type: physicochemical; conditions: 100 μM in 0.1 M phosphate buffer pH 4.5-9.0
Method: The pKa of each amine lipid was determined according to the method in Jayaraman, et al. (Angewandte Chemie, 2012) with the following adaptations. […] Lipid was diluted to 100 μM in 0.1 M phosphate buffer (Boston Bioproducts) where the pH ranged from 4.5-9.0. Fluorescence intensity was measured using excitation and emission wavelengths of 321 nm and 448 nm.

[3] = LNP average particle size and polydispersity by dynamic light scattering (Malvern Zetasizer); type: physicochemical
Description: The LNPs have a size of about 1 to about 1,000 nm, about 10 to about 500 nm, about 20 to about 500 nm, in a sub-embodiment about 50 to about 400 nm, in a sub-embodiment about 50 to about 300 nm, in a sub-embodiment about 50 to about 200 nm, and in a sub-embodiment about 50 to about 150 nm, and in another sub-embodiment about 60 to about 120 nm. Preferably, the LNPs have a size from about 60 nm to about 100 nm. The average sizes (diameters) of the fully formed LNP, may be measured by dynamic light scattering on a Malvern Zetasizer. The LNP sample is diluted in phosphate buffered saline (PBS) so that the count rate is approximately 200-400 kcps. The data is presented as a weighted average of the intensity measure.
The LNPs disclosed herein have a size (e.g. Z-average diameter) of about 1 to about 250 nm. In some embodiments, the LNPs have a size of about 10 to about 200 nm. In further embodiments, the LNPs have a size of about 20 to about 150 nm. In some embodiments, the LNPs have a size of about 50 to about 150 nm. In some embodiments, the LNPs have a size of about 50 to about 100 nm. In some embodiments, the LNPs have a size of about 50 to about 120 nm. In some embodiments, the LNPs have a size of about 60 to about 100 nm. In some embodiments, the LNPs have a size of about 75 to about 150 nm. In some embodiments, the LNPs have a size of about 75 to about 120 nm. In some embodiments, the LNPs have a size of about 75 to about 100 nm. Unless indicated otherwise, all sizes referred to herein are the average sizes (diameters) of the fully formed nanoparticles, as measured by dynamic light scattering on a Malvern Zetasizer. The nanoparticle sample is diluted in phosphate buffered saline (PBS) so that the count rate is approximately 200-400 kcps. The data is presented as a weighted-average of the intensity measure (Z-average diameter).
Dynamic Light Scattering (“DLS”) is used to characterize the polydispersity index (“pdi”) and size of the LNPs of the present disclosure. DLS measures the scattering of light that results from subjecting a sample to a light source. PDI, as determined from DLS measurements, represents the distribution of particle size (around the mean particle size) in a population, with a perfectly uniform population having a PDI of zero.
LNP compositions are analyzed for average particle size, polydispersity index (pdi), total RNA content, encapsulation efficiency of RNA, and zeta potential. LNP compositions may be further characterized by lipid analysis, AF4-MALS, NTA, and/or cryo-EM. Average particle size and polydispersity are measured by dynamic light scattering (DLS) using a Malvern Zetasizer DLS instrument. LNP samples were diluted with PBS buffer prior to being measured by DLS. Z-average diameter which is an intensity-based measurement of average particle size was reported along with number average diameter and pdi. A Malvern Zetasizer instrument is also used to measure the zeta potential of the LNP. Samples are diluted 1:17 (50 μL into 800 μL) in 0.1×PBS, pH 7.4 prior to measurement.

[4] = RNA encapsulation efficiency of LNP (Ribogreen fluorescence assay); type: physicochemical; conditions: N:P 6.0
Method: A fluorescence-based assay (Ribogreen®, ThermoFisher Scientific) is used to determine total RNA concentration and free RNA. Encapsulation efficiency is calculated as (Total RNA−Free RNA)/Total RNA. LNP samples are diluted appropriately with 1× TE buffer containing 0.2% Triton-X 100 to determine total RNA or 1× TE buffer to determine free RNA. Standard curves are prepared by utilizing the starting RNA solution used to make the compositions and diluted in 1× TE buffer+/−0.2% Triton-X 100. Diluted RiboGreen® dye (according to the manufacturer's instructions) is then added to each of the standards and samples and allowed to incubate for approximately 10 minutes at room temperature, in the absence of light. A SpectraMax M5 Microplate Reader (Molecular Devices) is used to read the samples with excitation, auto cutoff and emission wavelengths set to 488 nm, 515 nm, and 525 nm respectively. Total RNA and free RNA are determined from the appropriate standard curves.
Encapsulation efficiency is calculated as (Total RNA−Free RNA)/Total RNA. The same procedure may be used for determining the encapsulation efficiency of a DNA-based cargo component. For single-strand DNA Oligreen Dye may be used, and for double-strand DNA, Picogreen Dye.

[5] = system: TTR; assay: Transthyretin (TTR) ELISA analysis of mouse serum after LNP dosing; type: in vivo; conditions: 7 days post-dose; for inhibition in vivo at 0.03 mg/kg: read-out: Serum TTR (% KD)
Procedure, shortened: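 Female CD-1 mice aged 6-10 weeks were grouped by body weight and given LNPs by lateral tail vein injection (0.2 mL per animal, about 10 mL per kilogram). Mice were bled by cardiac puncture under isoflurane into serum separator tubes. Serum was diluted 10,000-fold for the 0.1 mpk dose, and total TTR was quantified with a Mouse Prealbumin (Transthyretin) ELISA Kit following the kit directions.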

[6] = system: TTR; assay: TTR editing in mouse liver by NGS after i.v. LNP delivery of Cas9 mRNA and sgRNA; type: in vivo; conditions: CD-1 female mice, 7 days post-dose; for Editing Mean % Indel: G282 1:1
Procedure, shortened: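 Cas9 mRNA and chemically modified sgRNA were co-formulated in LNPs made of an ionizable amine lipid, DSPC, cholesterol and PEG-2k-DMG at a 6.0 N:P ratio. CD-1 female mice aged 6-10 weeks received tail-vein injections of 0.2 mL. Liver genomic DNA was then amplified around the target site and sequenced on an Illumina MiSeq, with editing calculated as indel-containing reads over total reads.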

[7] = Table 3, Example 52: LNP, Cas9 mRNA + sgRNA (G650) 1:1 w/w, N:P 6.0
[8] = Table 26, Example 64: LNP, G282 1:1
[9] = Table 26, Example 64: LNP, G282 (TTR) 1:1 w/w
[10] = Example 64: Dose 0.03 mpk (table) i.v., G282 1:1
[11] = Mus musculus, iv, 168 h, Example 64: Dose 0.03 mpk (table) i.v., G282 1:1
[12] = Example 64: Dose 0.03 mpk (table) i.v.

Structure (SMILES) | Editing (%) of B2M in mouse liver [1] [%] | pKa [2] | Num Ave Size (nm) [3, 8] [nm] | PDI [3, 8] | Z-Ave Size (nm) [3, 8] [nm] | Encapsulation (%) [4, 9] [%] | Serum TTR [5, 10] [µg/mL] | inhibition in vivo at 0.03 mg/kg [5, 11] [%] | Editing Mean % Indel [6, 12] [%] | other results
CCCCCCCCCOC(=O)CCCCCCCN(CCO)CCCCCCCC(OCCCCCCCCC)OCCCCCCCCC [Compound 2] | 17.7 | 6.23 | – | – | – | – | – | – | – | –
CCCCCCCCCCOC(CCCCCCCN(CCO)CCCCCCCC(=O)OCCCCCCCCC)OCCCCCCCCCC [Compound 3, nonyl 8-[8,8-didecoxyoctyl(2-hydroxyethyl)amino]octanoate] | 8.8 | 6.19 | – | – | – | – | – | – | – | Num Ave Size (nm) [3, 7]: 57.41 nm; PDI [3, 7]: 0.056; Z-Ave Size (nm) [3, 7]: 75.79 nm; Encapsulation (%) ([4]; Table 3, Example 52: LNP, Cas9 mRNA + sgRNA (G650) 1:1 w/w, Compound 19 50/9/38/3, others 50/10/38.5/1.5): 98%
CCCCCCCCCOC(=O)CCCCCCCN(CCO)CCCCCCCCCC(OCCCCCCC)OCCCCCCC [Compound 4, nonyl 8-[10, 10-diheptoxydecyl(2-hydroxyethyl)amino]octanoate] | – | 7.04 | – | – | – | – | – | – | – | % Editing B2M in mouse liver ([1]; Example 54: 0.1 mpk i.v.): 29%; % Editing B2M in mouse liver ([1]; Example 54: 0.3 mpk i.v.): 57%; Serum TTR ([5]; Example 61: 0.1 mpk i.v., G282 1:1): 333 µg/mL; response vs control in vivo at 0.1 mg/kg ([5]; Mus musculus, iv, 168 h, Example 61: 0.1 mpk i.v., G282 1:1, read-out: Serum TTR % TSS): 26%; Editing Mean % Indel ([6]; Example 61: 0.1 mpk i.v.): 46.7%
CCCCCCCCCOC(=O)CCCCCCCN(CCO)CCCCCCCCCC(OCCCCCCCC)OCCCCCCCC [Compound 5] | 13.2 | 7.08 | – | – | – | – | – | – | – | Serum TTR ([5]; Example 56: 0.1 mpk i.v., G282): 738 µg/mL; Serum TTR (% TSS) ([5]; Example 56: 0.1 mpk i.v., G282): 92 % TSS; Editing % ([6]; Example 56: 0.1 mpk i.v., G282): 9%
CCCCCCCCCOC(=O)CCCCCCCN(CCO)CCCCCCCCCC(OCCCCCCCCC)OCCCCCCCCC [Compound 6, 8-[10,10-di(nonoxy)decyl-(2-hydroxyethyl)amino]octanoate] | 8.2 | 6.3 | – | – | – | – | – | – | – | –
CCCCCCCCCOC(=O)CCCCCCCN(CCCCCCC(OCCCCCCCC)OCCCCCCCC)CCCNC(=O)OC [Compound 43, nonyl 8-((7,7-bis(octyloxy)heptyl)(3-((methoxycarbonyl)amino)propyl)amino)octanoate] | – | 6.02 | 56 | 0.05 | 74 | 94 | 619.2 | -8.1 | 8.6 | –
CCCCCCCCCOC(=O)CCCCCCCN(CCCCCCC(OCCCCCCCC)OCCCCCCCC)CCNC(=O)OC [Compound 44, nonyl 8-((7,7-bis(octyloxy)heptyl)(2-((methoxycarbonyl)amino)ethyl)amino)octanoate] | – | 5.62 | 92 | 0.25 | 185 | 59 | 603.9 | -5.5 | 7.9 | –
CCCCCCCCCOC(=O)CCCCCCCN(CCCCCCC(OCCCCCCCC)OCCCCCCCC)CCCNC(=O)NC [Compound 46, nonyl 8-((7,7-bis(octyloxy)heptyl)(3-(3-methylureido)propyl)amino)octanoate] | – | 7.64 | 86 | 0.03 | 104 | 98 | 514.6 | 10.1 | 8.7 | –
